In patent US20160095929A1, “PROMOTION OF WOUND HEALING” (Northwestern University, priority 2011, published 2016):
“Also recorded” adds a separate entry of the source.

Legend:
[1] = test system: IR; test: IR phosphorylation / signaling immunoblot in HEKs; type: cell-based, human; conditions: HEKs 72-96 h; 100 pM EtDOP4, 100 pM TNF-α, GM3 50 μM; insulin 5 μg/ml
Description: Cells were starved of growth factors overnight (with treatment continued), then treated for 5-60 mins (15 mins shown) with or without insulin 5 μg/ml. Cells lysates were immunoprecipitated with anti-IR polyclonal antibody and blotted with monoclonal anti-IR, PY-20, or as a loading control, actin. Membrane lysates were immunoprecipitated with IR and immunoblotted with anti-IR (top), PY-20 (second row), anti-IRS-1 (3rd row in B), or to control for loading, actin (bottom). […] Expression of IR was not affected.

[2] = test system: GM3; test: GM3 expression in HEKs (flow cytometry / immunofluorescence with anti-GM3 antibody); type: cell-based, human; conditions: for GM3 expression (in words): GCS inhibitor, M154 medium and glucose-supplemented medium
Description: A. HEKs were treated for 96 h with 0-100 pM TNF-α in complete […] medium and GM3S expression determined by qPCR. B. GM3 was quantified by flow cytometry with anti-GM3 antibody after 0-100 pM TNF-α for 96 h. C, D. HEKs were treated with 12 mM supplemental glucose (C) or in […] medium alone (D) for 72 h and GM3 was detected with anti-GM3 antibody by immunofluorescence. […] Changes in GM3 expression by immunofluorescence with anti-GM3 antibody show efficacy of siRNA- and DNA-Au NPs with 60-72 h incubation. […] C. […] A, B=routine immunofluorescence; C, D and inset of D=confocal microscopy. Bar=14 μm.

[3] = test system: p-cofilin; test: p-cofilin immunoblotting in HEKs; type: cell-based, human; conditions: HEKs treated 72 h, immunoblot
Description: HEKs were treated for 72 h with or without Glu, C9, Glu+C9 (A), or with sense DNA-Au NPs or the hybrid GM2/GD2S and GD3S antisense-Au NPs (B). Immunoblotting of cell lysates detected p-cofilin8 ([…]), cofilin and, as a loading control, GAPDH.

[4] = test system: mouse KCs; test: Mouse KC in vitro wound (scratch) migration assay; type: cell-based; conditions: WT primary mouse KCs
Description: (§1) FIGS. 13A-C show ganglioside depletion reverses glucose-induced inhibition of proliferation and in vitro wound healing. (A) Mouse KCs were cultured in standard medium (8 mM glucose) or medium supplemented with 12 mM glucose treated for 72 h, and then plated at confluence onto collagen I-coated 24-well plates in the presence of mitomycin C to prevent proliferation. Two hours after plating, a scratch was made and migration was monitored photographically during the subsequent 60 h in the continued presence or absence of glucose. (B) Quantification of wound healing shown in (A) by computerized measurements of the unfilled gap. (C) Proliferation of mouse KCs was measured by WST assay in standard or glucose-supplemented medium. In vitro proliferation, migration and motility assays. […] For proliferation assays, KCs were plated onto 96-well (2×10^3 cell/well) or 12-well (2×10^4 cell/well) plates and cell proliferation was assessed daily for 5 d by either WST assay (96-well plate) per manufacturer's instruction (Clontech, Calif.) and manual counting using a hemacytometer (12-well plate). Cell migration was assessed by in vitro wound (scratch) assays as previously described (47). […] Cell migration in complete CnT-07 medium in the presence of 4 μg/mL mitomycin was recorded photographically every 3-4 h for 60 h under an inverted phase-contrast microscope (Nikon). […]

[5] = test system: mouse KCs; test: Mouse KC proliferation (WST assay); type: cell-based; conditions: WT primary mouse KCs
Description: as §1

[6] = test system: HEKs; test: HEK proliferation (WST assay); type: cell-based, human; conditions: with or without 12 mM glucose, up to 5 days
Description: (§2) A. KO and WT mouse KCs, grown in CNT07 medium, were treated with and without 12 mM glucose (Glu) for 72 h, and then plated into 96-well plates. Proliferation was measured by WST assay (Clontech) in the continued presence or absence of Glu. B. Mouse KCs were treated as above, then plated at confluence into Col I-coated 24-well plates in the presence of mitomycin C. Two hours after plating, a scratch was made and migration monitored. Migration was decreased by Glu, but was faster in the KO cells treated with Glu than with vehicle. […] A. HEKs were treated as described in FIG. 7 for mouse KCs and proliferation was measured. […] B. HEKs were treated and scratch assays performed as in FIG. 7. […] C. HEKs were treated with Glu and/or C9, but starved during the last 18 h. Cells were plated on the top of Col I-coated Boyden inserts in supplement-free medium, while the lower level was filled with the same medium with and without insulin (5 μg/ml) or IGF-1 (100 ng/ml) (Haase et al. J Cell Sci 2003; 116:3227-38.; herein incorporated by reference in its entirety). After 18 h, HEKs on the bottom surface were stained and counted. […] D-G. After their incubation in Glu and/or C9, HEKs were plated onto Col I-coated glass dishes and, 2 h later, single cells were imaged every 2 mins over a 2 h period using a Biostation phase contrast microscope (Nikon). […]

[7] = test system: HEKs; test: HEK scratch migration assay; type: cell-based, human; conditions: mitomycin C, with or without glucose
Description: as §2

[8] = in animals, relative to P4; cited from earlier work
[9] = test system: ceramides; test: Ceramide detection with anti-C2 Cer antibody (TLC immunostaining, ELISA) in HEKs; type: cell-based, human; conditions: TLC immunostaining and ELISA
[10] = test system: HEKs; test: HEK chemotaxis, Col I-coated Boyden inserts; type: cell-based, human; conditions: supplemental Glu, 18 h, with or without insulin 5 μg/ml or IGF-1 100 ng/ml
Description: (§3) A. HEKs were treated as described in FIG. 7 for mouse KCs and proliferation was measured. […] B. HEKs were treated and scratch assays performed as in FIG. 7. […] C. HEKs were treated with Glu and/or C9, but starved during the last 18 h. Cells were plated on the top of Col I-coated Boyden inserts in supplement-free medium, while the lower level was filled with the same medium with and without insulin (5 μg/ml) or IGF-1 (100 ng/ml) (Haase et al. J Cell Sci 2003; 116:3227-38.; herein incorporated by reference in its entirety). After 18 h, HEKs on the bottom surface were stained and counted. […] D-G. After their incubation in Glu and/or C9, HEKs were plated onto Col I-coated glass dishes and, 2 h later, single cells were imaged every 2 mins over a 2 h period using a Biostation phase contrast microscope (Nikon). […] Vector maps constructed with 10 representative tracks (G) further show reversal of the impact of Glu with C9 alone (which was approximately the same as with growth factors).

[11] = biological target: T1, GCS (Homo sapiens, UniProt Q16739); conditions: cited from earlier work
T1 sequence (Q16739 1-394): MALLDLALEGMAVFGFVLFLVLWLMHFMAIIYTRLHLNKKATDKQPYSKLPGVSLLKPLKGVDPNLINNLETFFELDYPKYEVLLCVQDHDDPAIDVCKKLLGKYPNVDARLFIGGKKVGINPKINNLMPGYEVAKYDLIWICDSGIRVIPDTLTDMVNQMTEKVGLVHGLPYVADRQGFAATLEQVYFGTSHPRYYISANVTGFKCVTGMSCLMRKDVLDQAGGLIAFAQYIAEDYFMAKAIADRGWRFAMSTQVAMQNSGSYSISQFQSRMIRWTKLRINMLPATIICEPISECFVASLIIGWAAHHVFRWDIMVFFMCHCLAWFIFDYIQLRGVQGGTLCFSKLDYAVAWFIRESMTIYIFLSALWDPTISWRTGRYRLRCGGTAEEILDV

[12] = test system: HEKs; test: HEK single live cell imaging (Biostation); type: cell-based, human; conditions: Glu-treated HEKs
Description: as §3

[13] = test system: IGF-1R; test: IGF-1R phosphorylation immunoblot in HEKs; type: cell-based, human; conditions: HEKs 72 h, with or without Glu; IGF-1 100 ng/ml or insulin 5 μg/ml
[14] = test system: α5 integrin; conditions: on fibronectin (FN); cited from earlier work
[15] = test system: globotriaosylceramide; conditions: patients with Fabry disease; cited from earlier work
[16] = phase II trials for Gaucher disease; cited from earlier work

TNF-α
IR signaling / IR phosphorylation (in words) [1]: suppresses IR signaling | increase in membrane-based GM3 expression ([2]; 0-100 pM TNF-α for 96 h, flow cytometry): 10 fold

insulin: growth factor, 5 μg/ml
phosphorylation of cofilin (in words) [3]: decrease p-cofilin

lactosylceramide [LacCer]
migration (in words) [4]: slightly decreased | proliferation (in words) [5]: slightly decreased

IGF-1: insulin-like growth factor 1
phosphorylation of cofilin (in words) [3]: decrease p-cofilin

CCCCCCCCC(=O)N[C@H](CN1CCCC1)[C@H](O)c1ccc2c(c1)OCCO2.O=C(O)C(O)C(O)C(=O)O [C9]
proliferation (in words) [6]: greatest in cells treated with Glu and C9; also recorded: increases | migration (in words) [7]: even faster in the HEKs treated with C9+Glu than in vehicle-treated HEKs; also recorded: increases | metabolic and tolerability profile [8]: better metabolic and tolerability profile | ceramide level (in words) [9]: does not increase ceramides; also recorded: neither C9 nor EtDOP4 increase ceramide | chemotaxis (in words) [10]: increased chemotaxis of HEKs exposed to supplemental Glu | potency at inhibiting GCS relative to P4 [11]: somewhat less potent | reduction in GM3 expression ([2]; 1 μM C9 for 72 h, flow cytometry): 93% | GM3 expression (in words) [2]: prevents GM3 expression; also recorded: deplete GM3 | phosphorylation of cofilin (in words) [3]: decrease p-cofilin | net displacement (reflecting persistence) ([12]; at 2 h): significantly increased | total distance (reflecting velocity) ([12]; at 2 h): significantly increased | cell polarity (in words) ([12]; imaged over 2 h): increased cell polarity | IGF-1R phosphorylation (in words) [13]: phosphorylates IGF-1R, including in the presence of supplemental glucose; also recorded: reverses the glucose-induced suppression of IGF-1R activation

GT1b
KC migration [14]: inhibit KC migration specifically on fibronectin (FN)

CCCCCCCCCCCCCCCC(=O)N[C@H](CN1CCCC1)[C@H](O)c1ccc2c(c1)OCCO2 [EtDOP4, D-threo-EtDO-P4]
proliferation (in words) [6]: increases | IR signaling / IR phosphorylation (in words) [1]: rescues the suppression of TNF-α of IR phosphorylation | migration (in words) [7]: increases | ceramide level (in words) [9]: neither C9 nor EtDOP4 increase ceramide | GM3 expression (in words) [2]: deplete GM3 | accumulation of globotriaosylceramide [15]: decrease the accumulation of globotriaosylceramide

eliglustat tartrate
toxicity [16]: showed little toxicity
